Columns and labels:
[1] = molecular target: Tyrosine-protein kinase Blk (Homo sapiens) (UniProt P51451); test: BLK DiscoveRx kinase panel; conditions: Compound concentration 1.0 uM
[2] = molecular target: Serine/threonine-protein kinase LATS1 (Homo sapiens) (UniProt O95835); test: LATS1 DiscoveRx kinase panel; conditions: Compound concentration 1.0 uM
[3] = molecular target: Serine/threonine-protein kinase ICK (Homo sapiens) (UniProt Q9UPZ9); test: ICK DiscoveRx kinase panel; conditions: Compound concentration 1.0 uM
[4] = molecular target: D(1A) dopamine receptor (Homo sapiens) (UniProt P21728); conditions: Compound concentration 10.0 uM
[5] = molecular target: Proto-oncogene tyrosine-protein kinase ROS (Homo sapiens) (UniProt P08922); test: ROS1 DiscoveRx kinase panel; conditions: Compound concentration 1.0 uM
[6] = molecular target: TRAF2 and NCK-interacting protein kinase (Homo sapiens) (UniProt Q9UKE5); test: TNIK DiscoveRx kinase panel; conditions: Compound concentration 1.0 uM
[7] = molecular target: Mitogen-activated protein kinase kinase kinase 7 (Homo sapiens) (UniProt O43318); test: TAK1 DiscoveRx kinase panel; conditions: Compound concentration 1.0 uM
[8] = molecular target: Mitogen-activated protein kinase kinase kinase kinase 3 (Homo sapiens) (UniProt Q8IVH8); test: MAP4K3 DiscoveRx kinase panel; conditions: Compound concentration 1.0 uM
[9] = molecular target: Beta-3 adrenergic receptor (Homo sapiens) (UniProt P13945); conditions: Compound concentration 10.0 uM
[10] = molecular target: Acetylcholinesterase (Homo sapiens) (UniProt P22303); conditions: Compound concentration 10.0 uM
[11] = molecular target: Ephrin type-B receptor 2 (Homo sapiens) (UniProt P29323); test: EPHB2 DiscoveRx kinase panel; conditions: Compound concentration 1.0 uM
[12] = molecular target: RAF proto-oncogene serine/threonine-protein kinase (Homo sapiens) (UniProt P04049); test: RAF1 DiscoveRx kinase panel; conditions: Compound concentration 1.0 uM
[13] = molecular target: Tyrosine-protein kinase ABL1 (Homo sapiens) (UniProt P00519); test: ABL1-nonphosphorylated DiscoveRx kinase panel; conditions: Compound concentration 1.0 uM
[14] = molecular target: 1-phosphatidylinositol 3-phosphate 5-kinase (Homo sapiens) (UniProt Q9Y2I7); test: PIKFYVE DiscoveRx kinase panel; conditions: Compound concentration 1.0 uM
[15] = molecular target: Dual specificity mitogen-activated protein kinase kinase 1 (Homo sapiens) (UniProt Q02750); test: MEK1 DiscoveRx kinase panel; conditions: Compound concentration 1.0 uM
[16] = molecular target: Mitogen-activated protein kinase 8 (Homo sapiens) (UniProt P45983); test: JNK1 DiscoveRx kinase panel; conditions: Compound concentration 1.0 uM
[17] = molecular target: Dual specificity protein kinase CLK1 (Homo sapiens) (UniProt P49759); test: CLK1 DiscoveRx kinase panel; conditions: Compound concentration 1.0 uM
[18] = molecular target: Serine/threonine-protein kinase 3 (Homo sapiens) (UniProt Q13188); test: MST2 DiscoveRx kinase panel; conditions: Compound concentration 1.0 uM
[19] = molecular target: Tyrosine-protein kinase receptor Tie-1 (Homo sapiens) (UniProt P35590); test: TIE1 DiscoveRx kinase panel; conditions: Compound concentration 1.0 uM
[20] = molecular target: Serine/threonine-protein kinase 32A (Homo sapiens) (UniProt Q8WU08); test: YANK1 DiscoveRx kinase panel; conditions: Compound concentration 1.0 uM
[21] = molecular target: Serine/threonine-protein kinase N1 (Homo sapiens) (UniProt Q16512); test: PKN1 DiscoveRx kinase panel; conditions: Compound concentration 1.0 uM
[22] = molecular target: Muscarinic acetylcholine receptor M3 (Homo sapiens) (UniProt P20309); conditions: Compound concentration 10.0 uM
[23] = molecular target: Cyclin-dependent kinase-like 1 (Homo sapiens) (UniProt Q00532); test: CDKL1 DiscoveRx kinase panel; conditions: Compound concentration 1.0 uM
[24] = molecular target: Muscarinic acetylcholine receptor M5 (Homo sapiens) (UniProt P08912); conditions: Compound concentration 10.0 uM
SUM149PT = test: SUM-149 cell line Proliferation assay; format: functional, Homo sapiens; conditions: time 4 day
[25] = molecular target: Serine/threonine-protein kinase ULK3 (Homo sapiens) (UniProt Q6PHR2); test: ULK3 DiscoveRx kinase panel; conditions: Compound concentration 1.0 uM
[26] = molecular target: Serine/threonine-protein kinase LATS2 (Homo sapiens) (UniProt Q9NRM7); test: LATS2 DiscoveRx kinase panel; conditions: Compound concentration 1.0 uM
[27] = molecular target: Rho-associated protein kinase 1 (Homo sapiens) (UniProt Q13464); test: ROCK1 DiscoveRx kinase panel; conditions: Compound concentration 1.0 uM
MAO-A = MAO-A (Homo sapiens, UniProt P21397); test: Inhibition of Monoamine Oxidase MAO-A at compound concentration of 10.0 uM in the Eurofins-Panlabs enzyme assay (Eurofins_assay_140010); parameters: substrate with concentration 50 uM Kynuramine, incubation time 60 min, incubation temperature 37 C; conditions: human recombinant MAO-A expressed in insect Hi5 cells, probe Kynuramine (50 uM), compound concentration 10 uM
[28] = molecular target: Mitotic checkpoint serine/threonine-protein kinase BUB1 (Homo sapiens, UniProt O43683); test: BUB1 biochemical assay (high ATP)
[29] = molecular target: Serine/threonine-protein kinase 32C (Homo sapiens) (UniProt Q86UX6); test: YANK3 DiscoveRx kinase panel; conditions: Compound concentration 1.0 uM
[30] = molecular target: Beta-adrenergic receptor kinase 1 (Homo sapiens) (UniProt P25098); test: GRK2 DiscoveRx kinase panel; conditions: Compound concentration 1.0 uM
[31] = molecular target: Histamine H4 receptor (Homo sapiens) (UniProt Q9H3N8); conditions: Compound concentration 10.0 uM
[32] = molecular target: cAMP-dependent protein kinase catalytic subunit alpha (Homo sapiens) (UniProt P17612); test: PKAC-alpha DiscoveRx kinase panel; conditions: Compound concentration 1.0 uM
[33] = molecular target: Cyclin-dependent kinase 11B (Homo sapiens) (UniProt P21127); test: CDC2L1 DiscoveRx kinase panel; conditions: Compound concentration 1.0 uM
[34] = molecular target: Bone morphogenetic protein receptor type-2 (Homo sapiens) (UniProt Q13873); test: BMPR2 DiscoveRx kinase panel; conditions: Compound concentration 1.0 uM
[35] = molecular target: Protein kinase C eta type (Homo sapiens) (UniProt P24723); test: PRKCH DiscoveRx kinase panel; conditions: Compound concentration 1.0 uM
[36] = molecular target: Serine/threonine-protein kinase pim-2 (Homo sapiens) (UniProt Q9P1W9); test: PIM2 DiscoveRx kinase panel; conditions: Compound concentration 1.0 uM
[37] = molecular target: Mitogen-activated protein kinase kinase kinase 10 (Homo sapiens) (UniProt Q02779); test: MLK2 DiscoveRx kinase panel; conditions: Compound concentration 1.0 uM
[38] = molecular target: Rhodopsin kinase GRK1 (Homo sapiens) (UniProt Q15835); test: GRK1 DiscoveRx kinase panel; conditions: Compound concentration 1.0 uM
[39] = molecular target: Serine/threonine-protein kinase 36 (Homo sapiens) (UniProt Q9NRP7); test: STK36 DiscoveRx kinase panel; conditions: Compound concentration 1.0 uM
[40] = molecular target: Peripheral plasma membrane protein CASK (Homo sapiens) (UniProt O14936); test: CASK DiscoveRx kinase panel; conditions: Compound concentration 1.0 uM
[41] = molecular target: Ephrin type-B receptor 1 (Homo sapiens) (UniProt P54762); test: EPHB1 DiscoveRx kinase panel; conditions: Compound concentration 1.0 uM
[42] = molecular target: Ephrin type-A receptor 4 (Homo sapiens) (UniProt P54764); test: EPHA4 DiscoveRx kinase panel; conditions: Compound concentration 1.0 uM
[43] = molecular target: Mitogen-activated protein kinase kinase kinase 14 (Homo sapiens) (UniProt Q99558); test: NIK DiscoveRx kinase panel; conditions: Compound concentration 1.0 uM
[44] = molecular target: Tyrosine-protein kinase Fgr (Homo sapiens) (UniProt P09769); test: FGR DiscoveRx kinase panel; conditions: Compound concentration 1.0 uM
[45] = molecular target: Fibroblast growth factor receptor 2 (Homo sapiens) (UniProt P21802); test: FGFR2 DiscoveRx kinase panel; conditions: Compound concentration 1.0 uM
[46] = molecular target: Myosin-IIIb (Homo sapiens) (UniProt Q8WXR4); test: MYO3B DiscoveRx kinase panel; conditions: Compound concentration 1.0 uM
Rattus norvegicus = species on record: Rattus norvegicus; test: GABAA, Ro-15-1788, Hippocampus Eurofins-Panlabs radioligand binding assay; parameters: ligand concentration 1 nM; conditions: Compound concentration 10.0 uM
[47] = molecular target: Tyrosine-protein kinase Lck (Homo sapiens) (UniProt P06239); test: LCK DiscoveRx kinase panel; conditions: Compound concentration 1.0 uM

Chain of Rho-associated protein kinase 1 (Homo sapiens) (Q13464 2-1354 limits assumed): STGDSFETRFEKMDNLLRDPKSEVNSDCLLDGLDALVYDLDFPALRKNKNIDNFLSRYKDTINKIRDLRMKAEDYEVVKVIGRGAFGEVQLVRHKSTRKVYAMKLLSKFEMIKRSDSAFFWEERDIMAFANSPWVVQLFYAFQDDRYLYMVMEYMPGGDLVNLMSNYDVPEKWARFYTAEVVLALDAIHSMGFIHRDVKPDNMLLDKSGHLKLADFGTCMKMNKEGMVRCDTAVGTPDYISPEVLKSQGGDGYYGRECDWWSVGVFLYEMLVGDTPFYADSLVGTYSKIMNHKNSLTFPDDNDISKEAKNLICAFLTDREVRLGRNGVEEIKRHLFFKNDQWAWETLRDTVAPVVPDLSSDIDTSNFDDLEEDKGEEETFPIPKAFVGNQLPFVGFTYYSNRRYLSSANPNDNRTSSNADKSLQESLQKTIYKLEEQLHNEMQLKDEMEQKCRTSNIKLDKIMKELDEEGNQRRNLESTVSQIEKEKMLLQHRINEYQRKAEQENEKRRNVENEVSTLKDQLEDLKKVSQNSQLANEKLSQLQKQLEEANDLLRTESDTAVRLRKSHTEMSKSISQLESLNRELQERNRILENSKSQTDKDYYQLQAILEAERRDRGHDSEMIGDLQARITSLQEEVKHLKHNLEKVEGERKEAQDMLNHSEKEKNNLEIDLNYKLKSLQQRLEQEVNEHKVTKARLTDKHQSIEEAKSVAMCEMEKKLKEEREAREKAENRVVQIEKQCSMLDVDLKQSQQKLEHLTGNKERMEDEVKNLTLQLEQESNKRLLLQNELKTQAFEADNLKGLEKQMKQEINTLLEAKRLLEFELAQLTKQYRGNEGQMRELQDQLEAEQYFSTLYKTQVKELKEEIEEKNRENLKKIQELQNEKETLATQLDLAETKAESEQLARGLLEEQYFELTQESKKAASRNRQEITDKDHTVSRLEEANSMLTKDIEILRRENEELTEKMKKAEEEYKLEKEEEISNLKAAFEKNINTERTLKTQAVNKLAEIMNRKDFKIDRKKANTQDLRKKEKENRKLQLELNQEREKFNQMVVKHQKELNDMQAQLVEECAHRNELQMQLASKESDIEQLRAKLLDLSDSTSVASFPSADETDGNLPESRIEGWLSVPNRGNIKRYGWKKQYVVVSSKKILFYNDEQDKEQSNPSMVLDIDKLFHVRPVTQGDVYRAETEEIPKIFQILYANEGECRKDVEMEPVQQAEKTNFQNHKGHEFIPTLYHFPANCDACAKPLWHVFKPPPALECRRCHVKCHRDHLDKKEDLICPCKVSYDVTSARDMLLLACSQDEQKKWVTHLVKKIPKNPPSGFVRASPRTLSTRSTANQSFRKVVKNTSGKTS
Chain of Cyclin-dependent kinase-like 1 (Homo sapiens) (Q00532 whole entry): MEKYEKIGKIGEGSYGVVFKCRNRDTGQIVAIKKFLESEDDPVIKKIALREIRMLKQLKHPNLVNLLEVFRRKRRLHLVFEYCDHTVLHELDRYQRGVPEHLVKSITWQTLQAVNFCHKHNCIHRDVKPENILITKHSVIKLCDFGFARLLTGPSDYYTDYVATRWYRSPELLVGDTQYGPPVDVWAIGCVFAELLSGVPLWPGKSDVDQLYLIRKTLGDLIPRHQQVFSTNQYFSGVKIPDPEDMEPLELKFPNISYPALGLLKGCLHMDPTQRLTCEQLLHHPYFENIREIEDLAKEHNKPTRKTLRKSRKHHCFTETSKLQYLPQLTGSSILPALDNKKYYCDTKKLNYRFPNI
Chain of Serine/threonine-protein kinase 32A (Homo sapiens) (Q8WU08 whole entry): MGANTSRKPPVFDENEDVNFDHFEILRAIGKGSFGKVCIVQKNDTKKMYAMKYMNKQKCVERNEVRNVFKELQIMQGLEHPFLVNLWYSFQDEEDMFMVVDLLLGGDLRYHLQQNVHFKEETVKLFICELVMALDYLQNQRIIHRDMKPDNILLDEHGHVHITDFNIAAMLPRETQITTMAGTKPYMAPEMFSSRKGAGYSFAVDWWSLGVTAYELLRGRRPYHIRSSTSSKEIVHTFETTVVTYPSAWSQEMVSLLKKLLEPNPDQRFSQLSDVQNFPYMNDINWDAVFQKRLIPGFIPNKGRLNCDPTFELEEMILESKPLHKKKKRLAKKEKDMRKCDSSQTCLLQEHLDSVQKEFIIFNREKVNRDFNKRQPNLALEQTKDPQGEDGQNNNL
Chain of Protein kinase C eta type (Homo sapiens) (P24723 whole entry): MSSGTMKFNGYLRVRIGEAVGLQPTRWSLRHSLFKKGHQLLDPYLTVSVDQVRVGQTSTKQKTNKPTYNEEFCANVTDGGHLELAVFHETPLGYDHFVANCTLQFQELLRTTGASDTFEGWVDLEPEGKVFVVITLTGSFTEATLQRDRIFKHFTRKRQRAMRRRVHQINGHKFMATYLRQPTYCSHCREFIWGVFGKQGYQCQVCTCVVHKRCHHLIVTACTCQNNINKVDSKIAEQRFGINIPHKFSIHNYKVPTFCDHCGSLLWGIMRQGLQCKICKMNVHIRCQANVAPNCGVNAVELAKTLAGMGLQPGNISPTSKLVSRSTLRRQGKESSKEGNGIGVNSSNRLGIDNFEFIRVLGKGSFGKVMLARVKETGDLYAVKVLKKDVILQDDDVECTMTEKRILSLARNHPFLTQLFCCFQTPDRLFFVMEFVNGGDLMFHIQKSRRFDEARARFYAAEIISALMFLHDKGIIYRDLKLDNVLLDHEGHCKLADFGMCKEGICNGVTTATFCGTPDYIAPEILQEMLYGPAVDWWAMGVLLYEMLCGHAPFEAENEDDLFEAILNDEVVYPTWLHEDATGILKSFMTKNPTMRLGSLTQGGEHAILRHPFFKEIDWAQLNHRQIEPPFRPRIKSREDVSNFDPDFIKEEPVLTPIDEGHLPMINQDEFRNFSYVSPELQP
Chain of Serine/threonine-protein kinase pim-2 (Homo sapiens) (Q9P1W9 whole entry, looked up): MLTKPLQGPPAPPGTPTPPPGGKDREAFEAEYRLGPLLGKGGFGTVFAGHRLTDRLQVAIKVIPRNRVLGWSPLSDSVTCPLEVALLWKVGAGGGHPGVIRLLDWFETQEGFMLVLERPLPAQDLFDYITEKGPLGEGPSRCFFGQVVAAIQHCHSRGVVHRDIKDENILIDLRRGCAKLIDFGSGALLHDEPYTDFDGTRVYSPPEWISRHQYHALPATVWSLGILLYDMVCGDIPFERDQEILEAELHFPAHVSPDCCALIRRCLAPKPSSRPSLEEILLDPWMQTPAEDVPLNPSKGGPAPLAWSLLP
Chain of Tyrosine-protein kinase Blk (Homo sapiens) (P51451 2-505 limits assumed): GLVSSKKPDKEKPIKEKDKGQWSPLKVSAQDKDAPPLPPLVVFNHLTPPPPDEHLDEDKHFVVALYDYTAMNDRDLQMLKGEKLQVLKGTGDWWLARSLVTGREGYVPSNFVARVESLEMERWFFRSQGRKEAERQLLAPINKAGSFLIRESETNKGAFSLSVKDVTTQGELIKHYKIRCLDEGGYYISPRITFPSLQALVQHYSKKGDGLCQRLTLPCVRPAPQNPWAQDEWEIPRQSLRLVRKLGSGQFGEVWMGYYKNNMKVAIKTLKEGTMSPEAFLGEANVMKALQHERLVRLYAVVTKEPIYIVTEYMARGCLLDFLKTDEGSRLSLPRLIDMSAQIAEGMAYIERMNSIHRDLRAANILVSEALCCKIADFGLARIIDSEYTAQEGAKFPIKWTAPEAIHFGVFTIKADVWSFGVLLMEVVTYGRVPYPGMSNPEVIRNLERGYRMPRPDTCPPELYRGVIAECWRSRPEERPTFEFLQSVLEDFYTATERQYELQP
Chain of Serine/threonine-protein kinase LATS1 (Homo sapiens) (O95835 whole entry): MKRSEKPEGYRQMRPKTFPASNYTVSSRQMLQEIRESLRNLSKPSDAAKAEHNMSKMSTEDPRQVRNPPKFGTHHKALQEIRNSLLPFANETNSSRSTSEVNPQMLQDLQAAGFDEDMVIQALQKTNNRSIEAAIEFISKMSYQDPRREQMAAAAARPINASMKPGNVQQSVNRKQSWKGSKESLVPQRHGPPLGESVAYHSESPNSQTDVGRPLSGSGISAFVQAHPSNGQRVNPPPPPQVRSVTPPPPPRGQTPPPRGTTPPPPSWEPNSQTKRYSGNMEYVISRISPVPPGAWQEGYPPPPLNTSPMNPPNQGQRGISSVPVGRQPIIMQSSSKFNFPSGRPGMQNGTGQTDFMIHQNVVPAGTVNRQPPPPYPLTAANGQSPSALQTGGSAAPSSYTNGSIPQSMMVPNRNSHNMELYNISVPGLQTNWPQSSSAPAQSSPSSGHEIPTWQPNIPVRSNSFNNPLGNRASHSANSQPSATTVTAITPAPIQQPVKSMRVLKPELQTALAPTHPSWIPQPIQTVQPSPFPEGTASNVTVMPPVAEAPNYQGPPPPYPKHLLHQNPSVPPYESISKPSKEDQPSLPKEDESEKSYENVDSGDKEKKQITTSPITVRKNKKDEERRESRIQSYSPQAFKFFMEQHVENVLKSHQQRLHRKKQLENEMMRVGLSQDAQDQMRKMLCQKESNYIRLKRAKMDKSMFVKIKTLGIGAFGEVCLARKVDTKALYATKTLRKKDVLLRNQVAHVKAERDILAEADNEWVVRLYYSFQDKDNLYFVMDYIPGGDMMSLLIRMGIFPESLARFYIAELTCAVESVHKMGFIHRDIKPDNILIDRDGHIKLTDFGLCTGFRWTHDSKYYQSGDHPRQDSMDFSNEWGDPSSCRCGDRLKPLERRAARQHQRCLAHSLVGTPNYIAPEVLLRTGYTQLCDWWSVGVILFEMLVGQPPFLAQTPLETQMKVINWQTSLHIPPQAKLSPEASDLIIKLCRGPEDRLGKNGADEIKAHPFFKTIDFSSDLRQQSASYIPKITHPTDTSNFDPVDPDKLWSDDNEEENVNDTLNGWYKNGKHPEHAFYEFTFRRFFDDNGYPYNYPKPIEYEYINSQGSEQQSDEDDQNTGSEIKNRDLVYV

COc1cnccc1Nc1nc(-c2nn(Cc3c(F)cc(OCCO)cc3F)c3ccccc23)ncc1OC
residual activity [1]: 88%
residual activity [2]: 95%
residual activity [3]: 84%
inhibition [4]: 5%
residual activity [5]: 100%
residual activity [6]: 100%
residual activity [7]: 100%
residual activity [8]: 100%
inhibition [9]: 4.26%
inhibition [10]: 2%
residual activity [11]: 100%
residual activity [12]: 71%
residual activity [13]: 87%
residual activity [14]: 88%
residual activity [15]: 97%
residual activity [16]: 79%
residual activity [17]: 100%
residual activity [18]: 82%
residual activity [19]: 65%
residual activity [20]: 71%
residual activity [21]: 92%
inhibition [22]: -5%
residual activity [23]: 81%
inhibition [24]: 8.89%
Cell Proliferation IC50 (SUM149PT): 640 nM
residual activity [25]: 100%
residual activity [26]: 100%
residual activity [27]: 100%
inhibition at 60 min, 10 µM (MAO-A): 7% (not active)
IC50 [28]: 1900 nM (not active)
residual activity [29]: 72%
residual activity [30]: 100%
inhibition [31]: 39.3%
residual activity [32]: 100%
residual activity [33]: 91%
residual activity [34]: 100%
residual activity [35]: 89%
residual activity [36]: 100%
residual activity [37]: 76%
residual activity [38]: 100%
residual activity [39]: 68%
residual activity [40]: 78%
residual activity [41]: 100%
residual activity [42]: 96%
residual activity [43]: 100%
residual activity [44]: 92%
residual activity [45]: 100%
residual activity [46]: 91%
inhibition (Rattus norvegicus): 22%
residual activity [47]: 100%
